Reference: patent US7476664B2, “Bis-2-difluoro-pyrrolo[2,1-C][1,4]benzodiazepine dimers” (priority 2007, dated 2009)

System: calf thymus (CT) DNA
Assay type: binding
Details: for ΔTm (° C.) after incubation at 37° C. for 0 h / ΔTm (° C.) after incubation at 37° C. for 18 h / ΔTm (° C.) after incubation at 37° C. for 36 h: [PBD]:[DNA] molar ratio 1:5, CT-DNA 100 μM, ligand 20 μM, 10 mM sodium phosphate + 1 mM EDTA, pH 7.00; for ΔTm (° C.) after incubation at 37° C. for 0 h: 0 h incubation at 37° C.; for ΔTm (° C.) after incubation at 37° C. for 18 h: 18 h incubation at 37° C.; for ΔTm (° C.) after incubation at 37° C. for 36 h: 36 h incubation at 37° C.
Experimental: The DNA binding affinity of the novel C2 di-fluoro PBD dimers (VIIa-c) was investigated by thermal denaturation studies using calf thymus (CT) DNA (Jones, G. B.; Davey, C. L.; Jenkins, T. C.; Kamal, A.; Kneale, G. G.; Neidle, S.; Webster, G. D.; Thurston, D. E. Anti-Cancer Drug Des. 1990, 5, 249. McConnaughie, A. W.; Jenkins, T. C. J. Med. Chem. 1995, 38, 3488). The studies for these compounds (VIIa-c) were carried out by DNA/ligand molar ratios of 5:1. The increase in the helix melting temperature. (ΔTm) for each compound was examined after 0, 18 and 36 h incubation at 37° C.

Row | Compound | ΔTm (° C.) after incubation at 37° C. for 0 h [°C] | ΔTm (° C.) after incubation at 37° C. for 18 h [°C] | ΔTm (° C.) after incubation at 37° C. for 36 h [°C] | ΔTm (increase in the helix melting temperature) (under identical experimental conditions, DNA/ligand molar ratio 5:1, incubation time not stated) [°C]
1 | 1,1′-{[(butane-1,4-diyl)]dioxy}bis[(11aS)-2,2-difluoro-7-methoxy-1,2,3,11a-tetrahydro-5H-pyrrolo[2,1-c][1,4]benzodiazepin-5-one [VIIb] | 4.2 | 23.4 | 24.7 | 
2 | 1,1′-{[(pentane-1,5-diyl)]dioxy}bis[(11aS)-2,2-difluoro-7-methoxy-1,2,3,11a-tetrahydro-5H-pyrrolo[2,1-c][1,4]benzodiazepin-5-one [VIIc] | 18.9 | 24.5 | 28.4 | 
3 | COc1cc2c(cc1O)N=CC1CCCN1C2=O (stereo not shown) [DC-81, reference compound] | 0.3 | 0.7 | 0.7 | 0.7
4 | COc1ccc2c(c1)C(=O)N1CC(F)(F)C(OCCCOC3[C@@H]4C=Nc5ccc(OC)cc5C(=O)N4CC3(F)F)[C@@H]1C=N2 (stereo partly drawn) [VIIa, 1,1′-{[(propane-1,3-diyl)]dioxy}bis[(11aS)-2,2-difluoro-7-methoxy-1,2,3,11a-tetrahydro-5H-pyrrolo[2,1-c][1,4]benzodiazepin-5-one]] | 13.1 | 23.4 | 27.5 | 
